In US8580486B2, “Salt having fluorine-containing carbanion structure, derivative thereof, photoacid generator, resist material using the photoacid generator, and pattern forming method” (Central Glass Company, Limited, priority 2008, dated 2013):
Where a name gives a salt, the structure may show the parent alone.

Assays:
[1] = Compatibility of PAG with resist (base resin); conditions: for Compatibility: acid generator (1.0), PGMEA (400)
[2] = Solubility in resist solvent (PGMEA); type: physicochemical; conditions: for Solubility: in propylene glycol monomethyl ether acetate (PGMEA)

With `CC(CC(S(=O)(=O)C(F)(F)F)S(=O)(=O)C(F)(F)F)OC(=O)C12CC3CC(CC(C3)C1)C2` (centres unmarked) [PAG1, 3-(1-adamantanecarbonyl)oxy 1,1-bis(trifluoromethanesulfonyl)butane triphenylsulfonium salt] as the compound, how does the Compatibility ([1]; Resin 1 (40 parts by wt.)) read?
The Compatibility was “Good”.

And the Compatibility ([1]; Resin 2 (40 parts by wt.))?
The Compatibility was “Good”.

What about the Compatibility ([1]; Resin 3 (40 parts by wt.)) of the same compound?
Its Compatibility is “Good”.

And the Compatibility ([1]; Resin 4 (40 parts by wt.))?
The Compatibility was “Good”.

What about the Compatibility ([1]; Resin 5 (40 parts by wt.)) of the same compound?
The Compatibility was “Good”.

And the “Compatibility with resists compared with conventional products” value ([1]; summary of Table 2 and Table 3, in words)?
Its value is “higher compatibility with resists as compared with conventional products”.

What about the “Solubility compared with existing PAG (PAG2) having an adamantane skeleton” value ([2]; in PGMEA, statement in words) of the same compound?
The value was “superior”.

What about the Solubility [2] of the same compound?
The Solubility was “not less than 0.1 parts by weight of PAG dissolved in 100 parts by weight of PGMEA”.

With “(adamantan-1-ylmethyl)oxycarbonyl difluoromethanesulfonic acid triphenylsulfonium [PAG2, reference compound]” as the compound, how does the Compatibility ([1]; Resin 1 (40 parts by wt.)) read?
Its Compatibility is “Good”.

And the Compatibility ([1]; Resin 2 (40 parts by wt.))?
The Compatibility was “Good”.

What about the Compatibility ([1]; Resin 3 (40 parts by wt.)) of the same compound?
The Compatibility was “Good”.

And the Compatibility ([1]; Resin 4 (40 parts by wt.))?
Its Compatibility is “Good”.

And the Solubility [2]?
The Solubility was 0.3 parts by weight of PAG dissolved in 100 parts by weight of PGMEA.

With “nonafluorobutanesulfonic acid triphenylsulfonium salt [PAG3, reference compound]” as the compound, how does the Compatibility ([1]; Resin 1 (40 parts by wt.)) read?
The Compatibility was “Good”.
